Test system: T1, MEK1 (platelet MEK; MEK1/2 not resolved)
T1 construct: gene MAP2K1
Test: western blot of ERK1/[…] phosphorylation (MEK substrate) in CRP- or TRAP-6-stimulated washed human platelets
Type: cell-based

Question: For O=C(c1ccc(F)c(F)c1Nc1ccc(I)cc1F)N1CC(O)([C@@H]2CCCCN2)C1 [Cobimetinib], which log10 IC50 (M) is on record?
Answer: The log10 IC50 (M) was -9.5.

Question: CC(=O)Nc1cccc(-n2c(=O)n(C3CC3)c(=O)c3c(Nc4ccc(I)cc4F)n(C)c(=O)c(C)c32)c1 [Trametinib] was tested. Which IC50 did it give?
Answer: Its IC50 is −10.9 ± 0.43 (logIC50) log M.
